We go through twelve compounds from patent publication US10618916B2, “Heterocyclic compounds as immunomodulators” (Incyte Corporation, priority 2018, dated 2020).

The target of assay [1] is PD-L1 (Homo sapiens (Human), UniProt Q9NZQ7). Description: PD-L1 whole blood internalization assay. The format is cell-based. To be noted: 24 HR, PD-L1 expression on CD14+ cells, human interferon γ.
For assay [2], the target named is PD-1/PD-L1 protein/protein interaction (recombinant human PD-L1 and human PD-1) (Homo sapiens (Human), UniProt Q9NZQ7). Description: Homogeneous Time-Resolved Fluorescence (HTRF) PD-1/PD-L1 binding assay. The procedure, abridged: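 Human PD-L1 (19-238, C-His; 10 nM final) and PD-1 (25-167, C-Fc; 3 nM final) preincubated 40 min with inhibitor in PBS pH 7.4, 0.05% Tween-20, 0.1% BSA, 1% DMSO, 25 °C. Eu-anti-human IgG (1 nM) and anti-His-APC (20 nM) added for 60 min; 665/620 nm ratio; IC50 from percent-control curves.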

Assay [3] deals with PD-L1 aAPC/CHO-K1 cells and Jurkat-PD-1-NFAT effector cells. Description: Nuclear factor of activated T-cells (NFAT) assay. Type of assay: cell-based. To be noted: Cricetulus griseus, CHO-K1. The procedure, abridged: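 CHO-K1 cells expressing PD-L1 aAPC were co-cultured with Jurkat-PD-1-NFAT effector cells in RPMI 1640 with 1% FBS and compound (0.4% DMSO; top concentration 2 μM) for 24 h at 37 °C. Bio-Glo luminescence was read, fold induction normalised to DMSO wells, and EC50 fitted from percent of control compound activity.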

For assay [4], the system named is U2OS/PD-L1 cells and Jurkat-PD-1-SHP cells. Description: Src homology region 2 domain-containing phosphatase (SHP) assay. The format is cell-based. The following applies: Homo sapiens, U2OS. Summed up: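 U2OS/PD-L1 and Jurkat-PD-1-SHP cells (5000 each per well) were co-incubated with compound for 2 h at 37 °C in RPMI1640 with 1% FBS, 0.05% DMSO final. PathHunter chemiluminescence was read after 1 h at room temperature, and IC50 was fitted from percent of DMSO-control activity.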

Chain of PD-L1 (Q9NZQ7 19-290): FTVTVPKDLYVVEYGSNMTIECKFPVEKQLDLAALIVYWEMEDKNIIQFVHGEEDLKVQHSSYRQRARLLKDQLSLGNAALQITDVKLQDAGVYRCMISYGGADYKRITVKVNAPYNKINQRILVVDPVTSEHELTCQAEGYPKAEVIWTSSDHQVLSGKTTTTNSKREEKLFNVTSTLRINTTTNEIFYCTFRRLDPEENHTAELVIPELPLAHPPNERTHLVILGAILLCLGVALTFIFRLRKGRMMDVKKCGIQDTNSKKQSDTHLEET
Chain of PD-1/PD-L1 protein/protein interaction (recombinant human PD-L1 and human PD-1) (Q9NZQ7 19-238): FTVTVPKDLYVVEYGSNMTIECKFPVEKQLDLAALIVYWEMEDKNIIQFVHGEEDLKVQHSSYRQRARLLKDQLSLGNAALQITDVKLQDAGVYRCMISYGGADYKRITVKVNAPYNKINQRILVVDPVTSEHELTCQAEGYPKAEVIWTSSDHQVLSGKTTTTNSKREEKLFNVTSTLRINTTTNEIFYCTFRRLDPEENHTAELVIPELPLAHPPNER

Turning to `Cn1c(C(=O)Nc2cccc(-c3cccc(NC(=O)c4nc5c(n4C)CCN(CCC46CCC(C(=O)O)(CC4)C6)C5)c3Cl)c2Cl)nc2c1CCN(CCc1ccc(C(=O)O)cc1)C2` [Example 25, 4-(2-(2-((3′-(5-(4-carboxyphenethyl)-1-methyl-4,5,6,7-tetrahydro-1H-imidazo[4,5-c]pyridine-2-carboxamido)-2,2′-dichloro-[1,1′-biphenyl]-3-yl)carbamoyl)-1-methyl-1,4,6,7-tetrahydro-5H-imidazo[4,5-c]pyridin-5-yl)ethyl)bicyclo[2.2.1]heptane-1-carboxylic acid], the IC50 in assay [1] is 100 to 500 nM; in assay [2], no more than 5 nM; in assay [4], 10 to 100 nM. In assay [3], this compound gave an EC50 of 10 to 100 nM.
`Cc1c(NC(=O)c2nc3c(n2C)CCNC3)cccc1-c1cccc(NC(=O)c2nc3c(n2C)CCN(CCC24CCC(C(=O)O)(CC2)C4)C3)c1Cl` [Example 27, 4-(2-(2-((2-chloro-2′-methyl-3′-(1-methyl-4,5,6,7-tetrahydro-1H-imidazo[4,5-c]pyridine-2-carboxamido)-[1,1′-biphenyl]-3-yl)carbamoyl)-1-methyl-1,4,6,7-tetrahydro-5H-imidazo[4,5-c]pyridin-5-yl)ethyl)bicyclo[2.2.1]heptane-1-carboxylic Acid]: the figures for the IC50 in assay [1], in assay [2] and in assay [4] were 10 to 100 nM, no more than 5 nM and no more than 10 nM, respectively. In assay [3], this compound returned an EC50 of 10 to 100 nM.
Take `Cc1c(NC(=O)c2nc3c(n2C)CCN(C2CCN(C(N)=O)CC2)C3)cccc1-c1cccc(NC(=O)c2nc3c(n2C)CCN(CCC24CCC(C(=O)O)(CC2)C4)C3)c1Cl` [Example 30, 4-(2-(2-((3′-(5-(1-carbamoylpiperidin-4-yl)-1-methyl-4,5,6,7-tetrahydro-1H-imidazo[4,5-c]pyridine-2-carboxamido)-2-chloro-2′-methyl-[1,1′-biphenyl]-3-yl)carbamoyl)-1-methyl-1,4,6,7-tetrahydro-5H-imidazo[4,5-c]pyridin-5-yl)ethyl)bicyclo[2.2.1]heptane-1-carboxylic acid]: the IC50 in assay [1] was 10 to 100 nM; in assay [2], no more than 5 nM; in assay [4], no more than 10 nM. In assay [3], this compound had an EC50 of 10 to 100 nM.
As to `Cc1c(NC(=O)c2nc3c(n2C)CCN(C[C@@H](C)O)C3)cccc1-c1cccc(NC(=O)c2nc3c(n2C)CCN(CCC24CCC(C(=O)O)(CC2)C4)C3)c1Cl` [Example 31, (R)-4-(2-(2-((2-chloro-3′-(5-(2-hydroxypropyl)-1-methyl-4,5,6,7-tetrahydro-1H-imidazo[4,5-c]pyridine-2-carboxamido)-2′-methyl-[1,1′-biphenyl]-3-yl)carbamoyl)-1-methyl-1,4,6,7-tetrahydro-5H-imidazo[4,5-c]pyridin-5-yl)ethyl)bicyclo[2.2.1]heptane-1-carboxylic Acid], the results for the IC50 in assay [1], in assay [2] and in assay [4] were 10 to 100 nM, no more than 5 nM and no more than 10 nM, respectively. Besides, the half-maximal effective concentration (EC50) in assay [3] was in the range of 10 to 100 nM.
For `Cc1c(NC(=O)c2nc3c(n2C)CCN(CCC24CCC(C(=O)O)(CC2)C4)C3)cccc1-c1cccc(NC(=O)c2nc3c(n2C)CCN(CCC24CCC(C(=O)O)(CC2)C4)C3)c1Cl` [Example 34, 4,4′-(((((2-chloro-2′-methyl-[1,1′-biphenyl]-3,3′-diyl)bis(azanediyl))bis(carbonyl))bis(1-methyl-1,4,6,7-tetrahydro-5H-imidazo[4,5-c]pyridine-2,5-diyl))bis(ethane-2,1-diyl))bis(bicyclo[2.2.1]heptane-1-carboxylic acid)], the results for the IC50 in assay [1], in assay [2] and in assay [4] were 10 to 100 nM, no more than 5 nM and no more than 10 nM, respectively. The compound further had an EC50 in assay [3] of 10 to 100 nM.
Take `Cc1c(NC(=O)c2nc3c(n2C)CCN(CC24CCC(C(=O)O)(CC2)C4)C3)cccc1-c1cccc(NC(=O)c2nc3c(n2C)CCN(CCC24CCC(C(=O)O)(CC2)C4)C3)c1Cl` [Example 35, 4-((2-((3′-(5-(2-(4-carboxybicyclo[2.2.1]heptan-1-yl)ethyl)-1-methyl-4,5,6,7-tetrahydro-1H-imidazo[4,5-c]pyridine-2-carboxamido)-2′-chloro-2-methyl-[1,1′-biphenyl]-3-yl)carbamoyl)-1-methyl-1,4,6,7-tetrahydro-5H-imidazo[4,5-c]pyridin-5-yl)methyl)bicyclo[2.2.1]heptane-1-carboxylic acid]: the figures for the IC50 in assay [1], in assay [2] and in assay [4] were 100 to 500 nM, no more than 5 nM and 10 to 100 nM, respectively. The EC50 in assay [3] lay within 100 to 500 nM.
Take `Cc1c(NC(=O)c2nc3c(n2C)CCN(CCc2ccc(C(=O)O)cc2)C3)cccc1-c1cccc(NC(=O)c2nc3c(n2C)CCN(CCC24CCC(C(=O)O)(CC2)C4)C3)c1Cl` [Example 36, 4-(2-(2-((3′-(5-(4-carboxyphenethyl)-1-methyl-4,5,6,7-tetrahydro-1H-imidazo[4,5-c]pyridine-2-carboxamido)-2-chloro-2′-methyl-[1,1′-biphenyl]-3-yl)carbamoyl)-1-methyl-1,4,6,7-tetrahydro-5H-imidazo[4,5-c]pyridin-5-yl)ethyl)bicyclo[2.2.1]heptane-1-carboxylic acid]: the IC50 in assay [1] is 10 to 100 nM; in assay [2], no more than 5 nM; in assay [4], no more than 10 nM. In addition, the EC50 in assay [3] was 10 to 100 nM.
For the compound `Cc1c(NC(=O)c2nc3c(n2C)CCN(CCC24CCC(C(=O)O)(CC2)C4)C3)cccc1-c1cccc(NC(=O)c2nc3c(n2C)CCNC3)c1Cl` [Example 37, 4-(2-(2-((2′-chloro-2-methyl-3′-(1-methyl-4,5,6,7-tetrahydro-1H-imidazo[4,5-c]pyridine-2-carboxamido)-[1,1′-biphenyl]-3-yl)carbamoyl)-1-methyl-1,4,6,7-tetrahydro-5H-imidazo[4,5-c]pyridin-5-yl)ethyl)bicyclo[2.2.1]heptane-1-carboxylic Acid], the IC50 in assay [1] is 10 to 100 nM; in assay [2], no more than 5 nM; in assay [4], no more than 10 nM. Also, the EC50 in assay [3] is 10 to 100 nM.
As for `Cc1c(NC(=O)c2nc3c(n2C)CCN(CCC24CCC(C(=O)O)(CC2)C4)C3)cccc1-c1cccc(NC(=O)c2nc3c(n2C)CCN(C2CCOCC2)C3)c1Cl` [Example 38, 4-(2-(2-((2′-chloro-2-methyl-3′-(1-methyl-5-(tetrahydro-2H-pyran-4-yl)-4,5,6,7-tetrahydro-1H-imidazo[4,5-c]pyridine-2-carboxamido)-[1,1′-biphenyl]-3-yl)carbamoyl)-1-methyl-1,4,6,7-tetrahydro-5H-imidazo[4,5-c]pyridin-5-yl)ethyl)bicyclo[2.2.1]heptane-1-carboxylic acid], the IC50 was 10 to 100 nM in assay [1], no more than 5 nM in assay [2] and no more than 10 nM in assay [4]. For the same compound, the EC50 in assay [3] is 10 to 100 nM.
As to `Cc1c(NC(=O)c2nc3c(n2C)CCN(CCC24CCC(C(=O)O)(CC2)C4)C3)cccc1-c1cccc(NC(=O)c2nc3c(n2C)CCN(C2CCN(C(N)=O)CC2)C3)c1Cl` [Example 40, 4-(2-(2-((3′-(5-(1-carbamoylpiperidin-4-yl)-1-methyl-4,5,6,7-tetrahydro-1H-imidazo[4,5-c]pyridine-2-carboxamido)-2′-chloro-2-methyl[1,1′-biphenyl]-3-yl)carbamoyl)-1-methyl-1,4,6,7-tetrahydro-5H-imidazo[4,5-c]pyridin-5-yl)ethyl)bicyclo[2.2.1]heptane-1-carboxylic acid], the IC50 is 10 to 100 nM in assay [1], no more than 5 nM in assay [2] and no more than 10 nM in assay [4]. Also, in assay [3], the EC50 lay within 10 to 100 nM.
In the case of `Cc1c(NC(=O)c2nc3c(n2C)CCN(CCC24CCC(C(=O)O)(CC2)C4)C3)cccc1-c1cccc(NC(=O)c2nc3c(n2C)CCN(C[C@@H](C)O)C3)c1Cl` [Example 41, (R)-4-(2-(2-((2′-chloro-3′-(5-(2-hydroxypropyl)-1-methyl-4,5,6,7-tetrahydro-1H-imidazo[4,5-c]pyridine-2-carboxamido)-2-methyl-[1,1′-biphenyl]-3-yl)carbamoyl)-1-methyl-1,4,6,7-tetrahydro-5H-imidazo[4,5-c]pyridin-5-yl)ethyl)bicyclo[2.2.1]heptane-1-carboxylic Acid], the IC50 is 10 to 100 nM in assay [1], no more than 5 nM in assay [2] and no more than 10 nM in assay [4]. In assay [3], this compound registered an EC50 of 10 to 100 nM.
`Cc1c(NC(=O)c2nc3c(n2C)CCN(CCC24CCC(C(=O)O)(CC2)C4)C3)cccc1-c1cccc(NC(=O)c2nc3c(n2C)CCN(C[C@H](C)O)C3)c1Cl` [Example 42, (S)-4-(2-(2-((2′-chloro-3′-(5-(2-hydroxypropyl)-1-methyl-4,5,6,7-tetrahydro-1H-imidazo[4,5-c]pyridine-2-carboxamido)-2-methyl-[1,1′-biphenyl]-3-yl)carbamoyl)-1-methyl-1,4,6,7-tetrahydro-5H-imidazo[4,5-c]pyridin-5-yl)ethyl)bicyclo[2.2.1]heptane-1-carboxylic acid]: the values for the IC50 in assay [1], in assay [2] and in assay [4] were 10 to 100 nM, no more than 5 nM and no more than 10 nM, respectively. In addition, the EC50 in assay [3] is 10 to 100 nM.

A word on the IC50: it is the midpoint of a concentration-inhibition curve. By EC50 is commonly meant the concentration giving half of the maximal effect. A lower EC50 goes with a more potent agent.
